In ChEMBL document CHEMBL1158220, “New prenylated quinones from Peperomia galioides” (J Nat Prod, 1996):
Active and inactive are the calls of the source. No cut-off for these calls is given here.

Experiments:
Assay type in all cases: functional, organism-based
[1] = system: Trypanosoma cruzi; assay: Antiparasitic activity against Trypanosoma cruzi Y trypomastigotes assessed as lysis of parasite at 250 ug/mL after 24 hrs
[2] = system: Leishmania braziliensis; assay: Antiparasitic activity against Leishmania braziliensis assessed as lysis of parasite at 100 ug/mL
[3] = system: Leishmania donovani; assay: Antiparasitic activity against Leishmania donovani assessed as lysis of parasite at 100 ug/mL
[4] = system: Leishmania amazonensis; assay: Antiparasitic activity against Leishmania amazonensis assessed as lysis of parasite at 100 ug/mL
[5] = system: Trypanosoma cruzi; assay: Antiparasitic activity against Trypanosoma cruzi Y trypomastigotes assessed as lysis of parasite after 24 hrs
[6] = system: Leishmania braziliensis; assay: Antiparasitic activity against Leishmania braziliensis at 25 ug/mL
[7] = system: Leishmania donovani; assay: Antiparasitic activity against Leishmania donovani at 25 ug/mL
[8] = system: Leishmania amazonensis; assay: Antiparasitic activity against Leishmania amazonensis at 25 ug/mL
[9] = system: Leishmania braziliensis; assay: Antiparasitic activity against Leishmania braziliensis assessed as lysis of parasite at 5 ug/mL
[10] = system: Leishmania donovani; assay: Antiparasitic activity against Leishmania donovani assessed as lysis of parasite at 5 ug/mL
[11] = system: Leishmania amazonensis; assay: Antiparasitic activity against Leishmania amazonensis assessed as lysis of parasite at 5 ug/mL

| Molecule | Activity [2] | Activity [3] | Activity [4] | Activity [5] | other results |
| --- | --- | --- | --- | --- | --- |
| CN(C)c1ccc(C(=C2C=CC(=[N+](C)C)C=C2)c2ccc(N(C)C)cc2)cc1 |  |  |  |  | Activity [1]: Active |
| MEGLUMINE ANTIMONATE | 40% | 40% | 40% |  |  |
| CC(C)=CCC/C(C)=C/CC1=C(O)C(=O)C(C)(CC=C(C)C)CC1=O (stereo not given) | Active | Active | Active | inactive | Activity [6]: Active; Activity [7]: Active; Activity [8]: Active |
| N=C(N)c1ccc(OCCCCCOc2ccc(C(=N)N)cc2)cc1 |  |  |  |  | Activity [9]: Active; Activity [10]: Active; Activity [11]: Active |
| CC(C)=CCCC1(C)C=CC2=C(O1)C(=O)C(C)=C(CC=C(C)C)C2=O (stereo not given) |  |  |  | inactive |  |
